“Also recorded” adds a separate entry of the source. Where two headings read alike, the source gives them in different places.
How the values were obtained:
INS mRNA = assay: insulin mRNA qPCR in T6PNE cells; format: cell-based, human
Procedure: (§1) Quantitative PCR (Q-PCR) from in vitro cell culture experiments used total RNA purified using RNeasy Kits (Qiagen). For liver tissue samples, total RNA was isolated using Trizol (Invitrogen) and prepared for RNAseq (mouse liver DMSO and NCT, N=3). cDNA was amplified using 3 μg of total RNA using qScript cDNA SuperMix (Quanta BioSciences, Beverly, Mass., USA). QPCR analysis was performed using SYBR® Select Master Mix (Applied Biosystems) and ABI 7900HT (Applied Biosystems, Thermo Fisher Scientific). The Ct values of mRNA expression were then normalized to the 18 s rRNA values and are expressed as fold change over samples from mice fed normal chow for in vivo experiments or DMSO controls for cell culture experiments.

HNF4α mRNA = HNF4α mRNA qPCR in T6PNE cells; format: cell-based, human
Procedure: as §1

T6PNE cells = assay: fat clearance assay in palmitate-treated T6PNE cells (Oil Red O, Nile Red, triglyceride); format: cell-based, human; details: 0.25 mM palmitate for 2 days; for cellular triglyceride (TG) level: 10 μM
Procedure: Oil red O and Nile Red staining were used to measure lipid accumulation. Oil Red O staining was done as known in the art. Briefly, fixed cells were incubated with Oil Red O solution (Poly Scientific) for 3 h, followed by photomicrography (Olympus, IX71). For Nile Red staining, dye (1: 500 in PBS from 1 mg/ml in ethanol stock, Sigma) was added for 30 mins and DAPI added for 10 mins at room temperature. Quantification of Nile Red staining was done with a Celigo imaging cytometer (Nexcelom Bioscience). More than 4000 cells were analyzed for each quantification. The number of Nile Redpositive cells was normalized to the DAPI-positive cell number for each well and fold change was calculated relative to a DMSO control well.
Palmitate (150 mM) (Sigma-Aldrich) was prepared in 50% ethanol and precomplexed with 15% fatty acid-free BSA (Research Organics, Cleveland, Ohio, USA) in a 37 C water shaker. BSA-precomplexed palmitate was used as a 12 mM stock solution for all assays with a final concentration of 0.25 mM palmitate in cell culture medium.
siRNAs were purchased from Ambion. For transfections, 24 μL of each siRNA (1 μM stock) was mixed with 90 μL of a 1:100 dilution of Lipofectamine RNAi MAX (Invitrogen, Waltham, Mass., USA) in Opti-MEM. Transfection was done in 24 well plates (Thermo Fisher Scientific, Waltham, Mass., USA), by incubation with cells for 30 min. at room temperature. One day after transfection, cells were transferred to 96 well plates (2000 cells per well) and incubated at 37° C. for an additional day. Forty-eight hours after transfection, either palmitate-BSA complex or BSA control plus or minus compounds was added for 2 days. For validation of siRNAs, transfected cells were harvested for RNA purification and QPCR for each gene 2 days after transfection.
The bicinchoninic acid (BCA) protein assay kit assay (Thermo scientific) was used to measure protein amount for DART, Western blotting and TG assays. Absorbance at 550 nm was determined using a plate reader.

[1] = animal cells and mice; cited from earlier work
HNF4α = biological target: T1, HNF4α (Homo sapiens, UniProt P41235); assay: DARTS assay (HNF4α protease sensitivity) in HepG2 cells; format: binding; design: Total cell protein was extracted; endogenous in cells; host or cells: HepG2 cells; details: 40 or 80 μM for 16 h, subtilisin
T1 sequence (P41235 1-474): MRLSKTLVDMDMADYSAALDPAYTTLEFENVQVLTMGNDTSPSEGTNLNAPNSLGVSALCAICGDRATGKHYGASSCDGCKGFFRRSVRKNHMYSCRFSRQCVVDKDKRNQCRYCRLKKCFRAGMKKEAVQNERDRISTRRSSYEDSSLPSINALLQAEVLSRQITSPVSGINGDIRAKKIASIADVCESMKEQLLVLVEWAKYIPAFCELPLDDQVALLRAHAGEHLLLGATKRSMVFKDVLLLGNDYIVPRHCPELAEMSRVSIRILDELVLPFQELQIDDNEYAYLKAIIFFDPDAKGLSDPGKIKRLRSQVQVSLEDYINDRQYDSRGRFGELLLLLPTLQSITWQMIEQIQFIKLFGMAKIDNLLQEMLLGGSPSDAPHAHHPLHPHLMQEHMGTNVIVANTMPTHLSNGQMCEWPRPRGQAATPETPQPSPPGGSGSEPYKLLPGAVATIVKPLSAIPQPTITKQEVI
Procedure: DARTS assays were conducted as described in the art. HepG2 cells were treated with DMSO, BI6015, NCT, NFT at a concentration of 40 or 80 μM for 16 hr. Total cell protein was extracted and measured by BCA protein assay (Thermo Scientific). Each sample was split into two aliquots for proteolysis without (−) or with (+) Subtilisin (Sigma-Aldrich). Forty […] of cell lysate was incubated with or without protease (40 ng/ml subtilisin) for 35 min at room temperature.
Whole-cell extracts were prepared by incubation in RIPA buffer (Invitrogen) containing protease inhibitors (Calbiochem, San Diego, Calif.). Protein ([…]) was separated on 12% or 16% Tri-Glycine gels (Invitrogen) and transferred to Immobilon P membrane (0.2 μm pore, Millipore). After 1 h in phosphate-buffered saline-Tween (PBST) with 3% milk, membrane was incubated with antibodies to HNF4α (mouse, Novus, 1:1000), LC3B (rabbit, Novus, 1:500), p62 (SQSTM1, mouse, Santa Cruz, 1:1000) or β-actin (mouse, Santa Cruz, 1:2000), followed by secondary antibody conjugated to horseradish peroxidase (1:5000, Jackson Immune).

SMILES	INS mRNA (INS mRNA)	HNF4α mRNA (HNF4α mRNA)	fat clearance (stored fat by Oil Red O and Nile Red staining) (T6PNE cells)	cellular triglyceride (TG) level (T6PNE cells)	anti-inflammatory properties [1]	HNF4α proteolytic sensitivity / conformational change (HNF4α)	HNF4α mRNA (HNF4α mRNA; listed as N-trans-caffeoyltyramine)
COc1cc(/C=C/C(=O)NCCc2ccc(O)cc2)ccc1O [NFT, N-trans feruloyltyramine]	increased	increased; also recorded: induced HNF4α expression	less stored fat than control cells; also recorded: induced fat clearance from palmitate-loaded cells	produced the same result as the Nile Red staining	anti-inflammatory properties	induced a change in HNF4α proteolytic sensitivity	
O=C(/C=C/c1ccc(O)c(O)c1)NCCc1ccc(O)cc1 [NCT, N-trans-caffeoyltyramine]	increased	increased; also recorded: induced HNF4α expression	less stored fat than control cells; also recorded: induced fat clearance from palmitate-loaded cells	produced the same result as the Nile Red staining	anti-inflammatory properties	induced a change in HNF4α proteolytic sensitivity	induces the expression of HNF4a mRNA

— patent US20220362182A1, “METHODS FOR REVERSING HEPATIC STEATOSIS” (BRIGHTSEED, INC., priority 2020, published 2022)
